Results on one molecule are retold here after patent US10179122B2, “Use of melatonin” (priority 2011, dated 2019).

For the assay, the system named is hangover symptoms after consumption of alcoholic beverages. The assay is described as follows: Hangover symptoms after alcohol consumption, blinded subjects given a sublingual melatonin strip before sleep. Format: in vivo, human. As for the experimental part: Subjects were blind to all the experimental treatments.
A person was fed alcoholic beverages containing ethyl alcohol until the blood alcohol concentration reached 310 mg/dL at a time of 10 pm. Next, the person drank 1 l of water and immediately after that was administered a sublingual strip comprising 2.5 mg of melatonin in non-retard form. After that the person went to sleep. […] This experiment was repeated with 20 other persons with the same effect.
For comparison, the same experiment was conducted with administration of the sublingual strip without melatonin as a placebo. 19 out of 20 persons reported severe typical hangover symptoms like headaches.

For `COc1ccc2[nH]cc(CCNC(C)=O)c2c1` [melatonin], the “typical hangover symptoms after 8 h of physiologic sleep” value (one person, blood alcohol concentration 310 mg/dL at 10 pm, 1 l of water, then sublingual strip with 2.5 mg melatonin in non-retard form, assessed after 8 h sleep) is “did not suffer from any typical hangover symptoms”. For the same molecule, the “typical hangover symptoms after 8 h of physiologic sleep (experiment repeated)” value (repeated with 20 other persons, same protocol (310 mg/dL, 1 l of water, sublingual strip with 2.5 mg melatonin in non-retard form, 8 h sleep)) is on record as “same effect”.
